{
  "source": "patent US11530229B2",
  "about": "“Cyano cyclobutyl compounds for CBL-B inhibition and uses thereof” (Nurix Therapeutics, Inc., priority 2019, dated 2022)",
  "system": "syngeneic TC-1 cell tumor",
  "experiment": "Tumor growth response (partial responders), Cbl-b inhibitor plus cancer vaccine, Biological Example 11",
  "type": "in vivo, C57BL/6 mice",
  "conditions": "significant decrease in tumor volume relative to control mice without Cbl-b inhibitor or vaccine; 10 mice per group",
  "method": "In brief, the combination therapy was tested in C57BL/6 mice bearing a syngeneic TC-1 cell tumor. TC-1 cells were derived from primary murine lung cells, which had been transfected with human papillomavirus strain 16 (HPV16) early proteins 6 and 7 (E6 and E7) and an activated human c-Ha-ras oncogene (Lin et al., Cancer Research, 56: 21-26, 1996). Either 2.5×10^4 (first study) or 5.0×10^4 (second study) TC-1 cells (obtained from Johns Hopkins University) were injected subcutaneously into the mid flank of each mouse. Tumors were allowed to grow to 50-100 mm^3 at which time the animals were randomized and treatment was initiated (Day 0). […]\nTumor size was recorded twice a week starting on Day 0 (Day 14 post TC-1 injection) and continued through duration of dosing until humane endpoints were reached between Day 33 and Day 42 (=between Day 47 and Day 56 post TC-1 injection). The level of response was evaluated by comparing tumor growth in the test mice versus the control mice (10 mice per group). In addition, the level of immune activation was assessed by collecting tumors for analysis of tumor infiltrating lymphocytes (TILs) on Day 10 (=Day 24 post TC-1 injection) in test and control mice (6 mice per group). […]",
  "data": [
    {"smiles": "Cc1cc(C(=O)Nc2cccc(C3(Cc4nncn4C)COC3)c2)nc(C2CC2)n1", "note": "[Compound 60]", "values": [
      {"measurement": "partial responders", "value": "0/10"}
    ]}
  ]
}
